Experimental data as given in patent US7074819B2, “Benzopyran or thiobenzopyran derivatives” (Chugai Seiyaku Kabushiki Kaisha, priority 1998, dated 2006).
Where two headings read alike, the source gives them in different places.

Assays:
ovariectomized mice [1] = assay: Anti-estrogenic activity (subcutaneous administration): inhibition of estradiol-stimulated uterine weight increase; format: in vivo, mice (ICR); settings: s.c., 3 days; for Inhibition (%) of the increase of uterine weight by estradiol: 30 μg/mouse in peanut oil, ovariectomized ICR mice given 17β-estradiol-benzoate 0.1 μg/day; for inhibition of the increase of uterine weight by estradiol (in words): 30 μg/mouse, ovariectomized mice given 17β-estradiol
Experimental: Anti-estrogenic activity of the test compound by subcutaneous administration was determined according to the method described hereinafter. In this experiment, the compounds of Examples 1, 2, 3, 4, 5, 22, 127 and 128 were used as the test compound and the known anti-estrogenic compound ZM189154 was used as the control compound as in Experiment 1.
In this experiment, the test compound or the control compound was dissolved in peanut oil (Sigma) and injected subcutaneously for 3 days, once a day. After 24 hours from the last injection, the test animal was sacrificed and uterus was removed and weighed.

MCF-7 cell lines (ATCC) = assay: Cell growth inhibiting activity (MTT, with 0.1 nM estradiol, 7 days); format: cell-based; settings: MCF-7 cells, read-out: IC50 value for inhibiting cell growth of 50%
Experimental: In this experiment, the cell growth inhibiting activity was determined by using the compounds of Examples 1, 2, 3, 5, 22, 127 and 128 as the test compound and the known anti-estrogenic compound […] having the following structure (see, EP0124369 B1) as the control compound, according to the method described hereinafter.
One day before drug administration, incubated MCF-7 cells were plated in 96-well plate in the concentration of 5×10^3 cells per well. After the 96-well plate was incubated for one day, 0.1 nM of estradiol and the test compound in the given concentration were added to each well. The plate was incubated for 7 days at 37° C. and then MTT solution (Sigma) was added to each well in the amount of 15 μl and allowed to react for 2 hours at 37° C. After the reaction was completed, the solubilizing/stopping solution (constitution: SDS, acetic acid, N,N-dimethylformamide) was added to each well in the amount of 100 μl. Then, the absorption for each well at 570 nm was measured by means of a plate reader. IC50 value for inhibiting cell growth of 50% was calculated from the results as measured and described in the following Table 2.

ovariectomized mice [2] = assay: Anti-estrogenic activity (oral administration): inhibition of estradiol-stimulated uterine weight increase; format: in vivo; settings: p.o., 3 days, 10 mg/kg in 5% arabic gum solution; ovariectomized ICR mice given 17β-estradiol-benzoate 0.1 μg/day
Experimental: Oral anti-estrogenic activity in vivo of the test compound was determined according to the method described hereinafter. In this experiment, the compound of Example 3, 22, 127 and 128 were used as the test compound and the known anti-estrogenic compound ZM189154 was used as the control compound as in Experiment 2.
In this experiment, the test compound or the control compound was suspended in 5% arabic gum solution and orally administered for 3 days, once a day. After 24 hours from the last administration, the test animal was sacrificed and uterus was removed and weighed.

[3] = 7 days at 37° C., absorption at 570 nm

Molecule	IC50 (MCF-7 cell lines (ATCC); [3])	IC50 (MCF-7 cell lines (ATCC); Homo sapiens, MCF7, 168 h, 7 days at 37° C., absorption at 570 nm)	IC50 (MCF-7 cell lines (ATCC); Homo sapiens, MCF7, 168 h, 7 days, control compound, (cis))	IC50 (MCF-7 cell lines (ATCC); Homo sapiens, MCF7, 168 h, 7 days, control compound, (trans))	Inhibition (%) of the increase of uterine weight by estradiol (ovariectomized mice [1])	inhibition of the increase of uterine weight by estradiol (in words) (ovariectomized mice [1])	Inhibition (%) of the increase of uterine weight by estradiol (ovariectomized mice [2])
7-hydroxy-3-(4-hydroxyphenyl)-3-methyl-4-{9-[4-(4,4,5,5,5-pentafluoropentyl)piperazinyl]nonyl}chroman [Example 1]	60.4 nM	–	–	–	27.5%	substantially inhibit	–
CCCCNC(=N)CCCCCCCCCC[C@H]1c2ccc(O)cc2OC[C@@]1(C)c1ccc(O)cc1 (racemic) [Compound I of Example 2, (3RS,4RS)-7-hydroxy-4-[(11-imino-11-N-butylamino)undecyl]-3-(4-hydroxyphenyl)-3-methylchroman]	67.5 nM	–	–	–	30.8%	–	–
CCCCN=C(CCCCCCCCCC[C@H]1c2ccc(O)cc2OC[C@@]1(C)c1ccc(O)cc1)NCCCC (racemic) [Compound II of Example 2, (3RS,4RS)-7-hydroxy-4-[(11-N-butylimino-11-N-butylamino)undecyl]-3-(4-hydroxyphenyl)-3-methylchroman]	1000 nM	–	–	–	−9.3%	–	–
CC(C)(C)c1cc(CN2CCN(CCOc3ccc([C@@H]4c5ccc(O)cc5OC[C@@]4(C)c4ccc(O)cc4)cc3)CC2)cc(C(C)(C)C)c1 (racemic) [Example 3, (3RS,4SR)-7-hydroxy-4-{4-{2-{4-{[3,5-bis(t-butyl)phenyl]methyl}piperazinyl}ethoxy}phenyl}-3-(4-hydroxyphenyl)-3-methylchroman]	54.5 nM	–	–	–	11.7%	–	0.6%
CN(CCCCC[C@H]1c2ccc(O)cc2OC[C@@]1(C)c1ccc(O)cc1)CCCSCCCC(F)(F)C(F)(F)F (racemic) [Example 4, (3RS,4RS)-7-hydroxy-3-(4-hydroxyphenyl)-4-{5-[N-methyl-N-3-(4,4,5,5,5-pentafluoropentylthio)propylamino]pentyl}-3-methylchroman]	–	–	–	–	26.4%	–	–

More lines, main results first:

IC50 (MCF-7 cell lines (ATCC); [3])	IC50 (MCF-7 cell lines (ATCC); Homo sapiens, MCF7, 168 h, 7 days at 37° C., absorption at 570 nm)	IC50 (MCF-7 cell lines (ATCC); Homo sapiens, MCF7, 168 h, 7 days, control compound, (cis))	IC50 (MCF-7 cell lines (ATCC); Homo sapiens, MCF7, 168 h, 7 days, control compound, (trans))	Molecule	Inhibition (%) of the increase of uterine weight by estradiol (ovariectomized mice [1])	inhibition of the increase of uterine weight by estradiol (in words) (ovariectomized mice [1])	Inhibition (%) of the increase of uterine weight by estradiol (ovariectomized mice [2])
–	387 nM	–	–	[O-][S+](CCCC(F)(F)C(F)(F)F)CCOCCOc1ccc(C2=C(c3ccc(O)cc3)COc3cc(O)ccc32)cc1 (stereo not drawn) [Example 5, 4-{4-{2-[2-(4,4,5,5,5-pentafluoropentylsulfinyl)ethoxy]ethoxy}phenyl}-7-hydroxy-3-(4-hydroxyphenyl)-2H-chromene]	9.8%	–	–
850 nM	–	–	–	CC1(c2ccc(O)cc2)CSc2cc(O)ccc2C1CCCCCCCCC(CCCC(F)(F)C(F)(F)F)C(=O)O (stereo not drawn) [Example 22, (3′RS,4′RS)-10-[7-hydroxy-3-(4-hydroxyphenyl)-3-methyltbiochroman-4-yl]-2-(4,4,5,5,5-pentafluoropentyl)decanoic acid]	51.0%	substantially inhibit	81.3%
–	–	9.2 nM	77 nM	C[C@]1(c2ccc(O)cc2)CCc2cc(O)ccc2C1CCCCCCCCC[S+]([O-])CCCC(F)(F)C(F)(F)F (stereo partly drawn) [ZM189154, reference compound]	73.8%	–	41.7%
